Laboratory results reported in PubChem BioAssay (NCI).
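Test compounds were applied to cells in 96-well plates for 48 hours at 5 doses. GI50 marks 50% less growth. TGI denotes the concentration required for complete inhibition of growth.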 Where a SMILES comes first, the peptide text is derived from it. [ ]: non-standard residue; d: D form. β3hI = CC[CH](C)[CH](N)CC(=O)O

Columns and labels:
Test in all cases: NCI-60 cell line screen, 48 h; in the data active = GI50 below about 0.43 µM; inactive = the rest
U251 CNS = test system: U251 CNS
HCT-116 colon = test system: HCT-116 colon
786-0 renal = test system: 786-0 renal
UACC-62 melanoma = test system: UACC-62 melanoma
A549 NSCLC = test system: A549 NSCLC
SK-OV-3 ovarian = test system: SK-OV-3 ovarian
OVCAR-8 ovarian = test system: OVCAR-8 ovarian
NCI-H23 lung = test system: NCI-H23 lung
CCRF-CEM leukemia = test system: CCRF-CEM leukemia
NCI-H460 lung = test system: NCI-H460 lung
SK-MEL-28 melanoma = test system: SK-MEL-28 melanoma
UACC-257 melanoma = test system: UACC-257 melanoma
NCI-H226 lung = test system: NCI-H226 lung
SNB-75 CNS = test system: SNB-75 CNS

O=C(O)c1ccc(C(c2c(O)c3ccccc3oc2=O)c2c(O)c3ccccc3oc2=O)cc1
> 100 µM: TGI (U251 CNS) | TGI (HCT-116 colon) | TGI (786-0 renal) | TGI (UACC-62 melanoma) | TGI (A549 NSCLC) | TGI (SK-OV-3 ovarian) | TGI (OVCAR-8 ovarian) | TGI (NCI-H23 lung) | TGI (CCRF-CEM leukemia) | TGI (NCI-H460 lung) | TGI (SK-MEL-28 melanoma) | TGI (UACC-257 melanoma)

NC1=NNC2(C(N)=N1)c1ccccc1-c1ccccc12
> 10 µM: TGI (HCT-116 colon) | TGI (NCI-H226 lung) | TGI (786-0 renal) | TGI (UACC-62 melanoma) | TGI (A549 NSCLC) | TGI (SK-OV-3 ovarian) | TGI (OVCAR-8 ovarian) | TGI (NCI-H23 lung) | TGI (NCI-H460 lung) | TGI (SK-MEL-28 melanoma) | TGI (UACC-257 melanoma) | TGI (SNB-75 CNS)

O=c1ccn2n1CCCCC2
> 100 µM: TGI (U251 CNS) | TGI (HCT-116 colon) | TGI (NCI-H226 lung) | TGI (786-0 renal) | TGI (UACC-62 melanoma) | TGI (A549 NSCLC) | TGI (SK-OV-3 ovarian) | TGI (OVCAR-8 ovarian) | TGI (NCI-H23 lung) | TGI (CCRF-CEM leukemia) | TGI (NCI-H460 lung) | TGI (SK-MEL-28 melanoma) | TGI (UACC-257 melanoma)

CN(C1=NCCO1)c1cccc2c1CCCC2
8.06 µM: TGI (CCRF-CEM leukemia)
6.14 µM: TGI (NCI-H226 lung)
> 10 µM: TGI (U251 CNS) | TGI (786-0 renal) | TGI (UACC-62 melanoma) | TGI (A549 NSCLC) | TGI (SK-OV-3 ovarian) | TGI (OVCAR-8 ovarian) | TGI (NCI-H460 lung) | TGI (SK-MEL-28 melanoma) | TGI (UACC-257 melanoma)
8.95 µM: TGI (HCT-116 colon)
8.81 µM: TGI (NCI-H23 lung)

COC(=O)C(Cc1ccccc1)OC(=O)C(N)CC(=O)O (centres undefined)
> 100 µM: TGI (HCT-116 colon) | TGI (NCI-H226 lung) | TGI (786-0 renal) | TGI (UACC-62 melanoma) | TGI (A549 NSCLC) | TGI (SK-OV-3 ovarian) | TGI (OVCAR-8 ovarian) | TGI (NCI-H23 lung) | TGI (NCI-H460 lung) | TGI (SK-MEL-28 melanoma) | TGI (UACC-257 melanoma) | TGI (SNB-75 CNS)

CC1(C)CN=C(Nc2cccc(C(F)(F)F)c2)S1
> 100 µM: TGI (U251 CNS) | TGI (HCT-116 colon) | TGI (NCI-H226 lung) | TGI (786-0 renal) | TGI (UACC-62 melanoma) | TGI (A549 NSCLC) | TGI (SK-OV-3 ovarian) | TGI (OVCAR-8 ovarian) | TGI (NCI-H23 lung) | TGI (CCRF-CEM leukemia) | TGI (SK-MEL-28 melanoma) | TGI (UACC-257 melanoma) | TGI (SNB-75 CNS)

CC(C)NC(=O)OCc1c(COC(=O)NC(C)C)n(C)c2c1ccc1ccccc12
3.17 µM: TGI (NCI-H23 lung)
7.11 µM: TGI (SNB-75 CNS)
4.24 µM: TGI (U251 CNS)
5.75 µM: TGI (SK-MEL-28 melanoma)
2.99 µM: TGI (UACC-257 melanoma)
4.5 µM: TGI (OVCAR-8 ovarian)
23.5 µM: TGI (A549 NSCLC)
2.82 µM: TGI (HCT-116 colon)
5.43 µM: TGI (NCI-H226 lung)
2.92 µM: TGI (UACC-62 melanoma)
7.7 µM: TGI (NCI-H460 lung)
2.5 µM: TGI (786-0 renal)
22.2 µM: TGI (SK-OV-3 ovarian)

CCOP(=O)(C=C=C(C)C)OCC
> 100 µM: TGI (U251 CNS) | TGI (HCT-116 colon) | TGI (NCI-H226 lung) | TGI (786-0 renal) | TGI (UACC-62 melanoma) | TGI (A549 NSCLC) | TGI (SK-OV-3 ovarian) | TGI (OVCAR-8 ovarian) | TGI (NCI-H23 lung) | TGI (NCI-H460 lung) | TGI (SK-MEL-28 melanoma) | TGI (UACC-257 melanoma) | TGI (SNB-75 CNS)

O=C(CCc1cccc(O)c1)NCCc1ccc(O)cc1
> 100 µM: TGI (U251 CNS) | TGI (HCT-116 colon) | TGI (NCI-H226 lung) | TGI (786-0 renal) | TGI (UACC-62 melanoma) | TGI (A549 NSCLC) | TGI (SK-OV-3 ovarian) | TGI (OVCAR-8 ovarian) | TGI (NCI-H23 lung) | TGI (CCRF-CEM leukemia) | TGI (NCI-H460 lung) | TGI (SK-MEL-28 melanoma) | TGI (UACC-257 melanoma)

CCOC(=O)CCC(NC(=O)Cc1ccc(Oc2nc3ccccc3nc2-c2cccs2)cc1)C(=O)OCC (centres undefined)
87.1 µM: TGI (U251 CNS)
14.2 µM: TGI (OVCAR-8 ovarian)
86.2 µM: TGI (NCI-H226 lung)
15.3 µM: TGI (786-0 renal)
> 100 µM: TGI (HCT-116 colon) | TGI (UACC-62 melanoma) | TGI (NCI-H23 lung) | TGI (CCRF-CEM leukemia) | TGI (NCI-H460 lung) | TGI (SK-MEL-28 melanoma) | TGI (UACC-257 melanoma)
62.8 µM: TGI (A549 NSCLC)

CC(=O)Oc1cc2c(cc1OC(C)=O)[C@H]1CC[C@]3(C)[C@@H](OC(C)=O)CC[C@H]3[C@@H]1CC2
21.7 µM: TGI (SK-OV-3 ovarian)
18.5 µM: TGI (HCT-116 colon)
13.1 µM: TGI (UACC-62 melanoma)
28 µM: TGI (OVCAR-8 ovarian)
20.6 µM: TGI (NCI-H460 lung)
22.9 µM: TGI (NCI-H23 lung)
22.4 µM: TGI (UACC-257 melanoma)
18.9 µM: TGI (786-0 renal)
inactive: GI50 (HCT-116 colon) 5.08 µM | GI50 (UACC-62 melanoma) 2.48 µM
4.42 µM: TGI (SNB-75 CNS)
17.6 µM: TGI (U251 CNS)
24.2 µM: TGI (A549 NSCLC)
19.7 µM: TGI (SK-MEL-28 melanoma)

Cc1c2c(n(Cc3ccccn3)c1C)NN=C(C#N)S2(=O)=O
> 100 µM: TGI (U251 CNS) | TGI (HCT-116 colon) | TGI (NCI-H226 lung) | TGI (786-0 renal) | TGI (UACC-62 melanoma) | TGI (A549 NSCLC) | TGI (SK-OV-3 ovarian) | TGI (OVCAR-8 ovarian) | TGI (NCI-H23 lung) | TGI (NCI-H460 lung) | TGI (SK-MEL-28 melanoma) | TGI (UACC-257 melanoma) | TGI (SNB-75 CNS)

N/N=C1/CCCc2nonc21
> 100 µM: TGI (U251 CNS) | TGI (HCT-116 colon) | TGI (786-0 renal) | TGI (UACC-62 melanoma) | TGI (A549 NSCLC) | TGI (SK-OV-3 ovarian) | TGI (OVCAR-8 ovarian) | TGI (NCI-H23 lung) | TGI (CCRF-CEM leukemia) | TGI (NCI-H460 lung) | TGI (SK-MEL-28 melanoma) | TGI (UACC-257 melanoma)

COc1cccc(N2C(=O)CSC2c2cc(OC)c(OC)c(OC)c2)c1 (centres undefined)
> 100 µM: TGI (U251 CNS) | TGI (HCT-116 colon) | TGI (786-0 renal) | TGI (UACC-62 melanoma) | TGI (A549 NSCLC) | TGI (SK-OV-3 ovarian) | TGI (OVCAR-8 ovarian) | TGI (NCI-H23 lung) | TGI (NCI-H460 lung) | TGI (SK-MEL-28 melanoma) | TGI (UACC-257 melanoma)
65 µM: TGI (CCRF-CEM leukemia)
87.2 µM: TGI (NCI-H226 lung)

CCC(C)C(CC(=O)N1CCCC1C(=O)NC(C(=O)NC(C(=O)NCC(=O)NC(CC(N)=O)C(=O)NC(C(=O)NC(C(=O)NC(CCCCN)C(N)=O)C(C)CC)C(C)CC)C(C)C)C(C)CC)NC(=O)C(N)C(C)CC (stereo not drawn) (H-I[β3hI]PIVGNIIK-NH2; configuration not given here)
> 50 µM: TGI (U251 CNS) | TGI (HCT-116 colon) | TGI (NCI-H226 lung) | TGI (786-0 renal) | TGI (UACC-62 melanoma) | TGI (A549 NSCLC) | TGI (SK-OV-3 ovarian) | TGI (OVCAR-8 ovarian) | TGI (NCI-H23 lung) | TGI (CCRF-CEM leukemia) | TGI (SK-MEL-28 melanoma) | TGI (UACC-257 melanoma)

COc1ccc2oc(C(=O)N3CC(CCl)c4ccc([N+](=O)[O-])cc43)cc2c1 (centres undefined)
48.7 µM: TGI (SK-OV-3 ovarian)
36.8 µM: TGI (NCI-H226 lung)
> 100 µM: TGI (U251 CNS) | TGI (HCT-116 colon) | TGI (UACC-62 melanoma) | TGI (OVCAR-8 ovarian) | TGI (NCI-H23 lung) | TGI (NCI-H460 lung) | TGI (SK-MEL-28 melanoma) | TGI (UACC-257 melanoma)
79.3 µM: TGI (SNB-75 CNS)
46 µM: TGI (786-0 renal)

COc1cccc(/C=C2\CCCCCC2=O)c1
> 100 µM: TGI (U251 CNS) | TGI (HCT-116 colon) | TGI (NCI-H226 lung) | TGI (786-0 renal) | TGI (UACC-62 melanoma) | TGI (A549 NSCLC) | TGI (SK-OV-3 ovarian) | TGI (NCI-H23 lung) | TGI (NCI-H460 lung) | TGI (SK-MEL-28 melanoma) | TGI (UACC-257 melanoma) | TGI (SNB-75 CNS)
